The assay has as its system variant F49 of the protease from Bacillus lentus. The assay can be described thus: Residual proteolytic activity after storage in liquid washing agent (suc-AAPF-pNA). It is filed as biochemical. Conditions: 13 days at 30° C., initial activity = 100%. The source says: A liquid washing agent of the following composition served as a baseline washing agent formulation (all indications in percent by weight): 0.3 to 0.5% xanthan, 0.2 to 0.4% antifoaming agent, 6 to 7% glycerol, 0.3 to 0.5% ethanol, 4 to 7% FAEOS (fatty alcohol ether sulfate), 24 to 28% nonionic surfactants, 1 to 2% sodium citrate (dihydrate), 2 to 4% soda, 14 to 16% coconut fatty acids, 0.5% HEDP (1-hydroxyethane-(1,1-diphosphonic acid)), 0 to 0.4% PVP (polyvinylpyrrolidone), 0 to 0.05% optical brightener, 0 to 0.001% dye, remainder demineralized water.
The aminophthalic acid 4-aminophthalic acid (Alfa Aesar) was incorporated into this formulation as the component stabilizing the hydrolytic enzyme, as indicated below (see Table 1, indications in this regard in wt %). Comparison formulations that contained either boric acid as an enzyme stabilizer, or no enzyme stabilizer, served as controls. The protease used was variant F49 of the protease from Bacillus lentus in accordance with WO 95/23221 (quantity used: 1 wt % active substance).
After storage, the respective residual proteolytic activity was determined by way of the release of the para-nitroaniline (pNA) chromophore from the suc-L-Ala-L-Ala-L-Pro-L-Phe-p-nitroanilide substrate (suc-AAPF-pNA). The protease cleaves the substrate and releases pNA. The release of pNA causes an increase in extinction at 410 nm, the time course of which is an indication of enzymatic activity (see Del Mar et al., 1979). Measurement occurred at a temperature of 25° C., at pH 8.6 and at a wavelength of 410 nm. The measurement time was 5 min, with a measurement interval from 20 s to 60 s. The proteolytic activity values obtained are indicated in Table 1 below, based on an initial activity of 100% when storage began.

[1] abbreviates: 1.0 wt % stabilizer in baseline liquid washing agent.

Turning to `Nc1ccc(C(=O)O)c(C(=O)O)c1` [4-aminophthalic acid], the “residual proteolytic activity after storage” value runs as follows: (0.1 wt % stabilizer in baseline liquid washing agent) 28.3%; (0.5 wt % stabilizer in baseline liquid washing agent) 33.3%; under setting [1], 40.8%; (2.0 wt % stabilizer in baseline liquid washing agent) 50.0%.
For `OB(O)O` [boric acid, reference compound], the “residual proteolytic activity after storage” value under setting [1] turned out to be 74.9%.

The record behind these values is patent US20130143297A1, “STABILIZED LIQUID TENSIDE P[…]” (Henkel AG & Co. KGaA, priority 2010, published 2013).
